# Experiments:
# [1] = test system: A375 melanoma cell with BRAF V600E mutation; assay: A375 cell proliferation assay (counter screen); assay type: cell-based, human; conditions: Homo sapiens, A-375, A375 cells, 72 hours treatment, CellTiter96, read-out: anti-proliferation activity A375 BRAF V600E, IC50 ranking
# In short: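 A375 cells (BRAF V600E) seeded at 2000 cells/well in DMEM with 10% FBS, settled overnight at 37° C, 5% CO2, then exposed to increasing compound concentrations for 72 hours. Viability read by MTS-type CellTiter96 AQueous reagent, absorbance at 490 nm after 2–4 hours.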
# [2] = test system: MV4-11 human acute myeloid leukemia cell with FLT3-ITD mutation; assay: MV4-11 cell proliferation assay (CellTiter 96); assay type: cell-based; conditions: Homo sapiens, MV4-11, 72 h, MV4-11 cells, 72 hours treatment, CellTiter96; read-out: anti-proliferation activity MV4-11 (FLT3-ITD), IC50 ranking
# In short: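 Cells seeded at 6500/well in IMDM with 10% heat-inactivated FBS, left overnight at 37 °C, 5% CO2, then exposed to increasing compound concentrations for 72 h. Viability read as absorbance at 490 nm after 2–4 h with CellTiter96 AQueous One reagent.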
# PDGFRα kinase = biological target: T1, PDGFRα kinase (Homo sapiens, UniProt P16234); assay: PDGFRα kinase assay (AlphaScreen); assay type: biochemical; conditions: read-out: Ranking of IC50 values, PDGFRα
# T1 construct: purchased SignalChem
# T1 sequence (P16234 24-1089): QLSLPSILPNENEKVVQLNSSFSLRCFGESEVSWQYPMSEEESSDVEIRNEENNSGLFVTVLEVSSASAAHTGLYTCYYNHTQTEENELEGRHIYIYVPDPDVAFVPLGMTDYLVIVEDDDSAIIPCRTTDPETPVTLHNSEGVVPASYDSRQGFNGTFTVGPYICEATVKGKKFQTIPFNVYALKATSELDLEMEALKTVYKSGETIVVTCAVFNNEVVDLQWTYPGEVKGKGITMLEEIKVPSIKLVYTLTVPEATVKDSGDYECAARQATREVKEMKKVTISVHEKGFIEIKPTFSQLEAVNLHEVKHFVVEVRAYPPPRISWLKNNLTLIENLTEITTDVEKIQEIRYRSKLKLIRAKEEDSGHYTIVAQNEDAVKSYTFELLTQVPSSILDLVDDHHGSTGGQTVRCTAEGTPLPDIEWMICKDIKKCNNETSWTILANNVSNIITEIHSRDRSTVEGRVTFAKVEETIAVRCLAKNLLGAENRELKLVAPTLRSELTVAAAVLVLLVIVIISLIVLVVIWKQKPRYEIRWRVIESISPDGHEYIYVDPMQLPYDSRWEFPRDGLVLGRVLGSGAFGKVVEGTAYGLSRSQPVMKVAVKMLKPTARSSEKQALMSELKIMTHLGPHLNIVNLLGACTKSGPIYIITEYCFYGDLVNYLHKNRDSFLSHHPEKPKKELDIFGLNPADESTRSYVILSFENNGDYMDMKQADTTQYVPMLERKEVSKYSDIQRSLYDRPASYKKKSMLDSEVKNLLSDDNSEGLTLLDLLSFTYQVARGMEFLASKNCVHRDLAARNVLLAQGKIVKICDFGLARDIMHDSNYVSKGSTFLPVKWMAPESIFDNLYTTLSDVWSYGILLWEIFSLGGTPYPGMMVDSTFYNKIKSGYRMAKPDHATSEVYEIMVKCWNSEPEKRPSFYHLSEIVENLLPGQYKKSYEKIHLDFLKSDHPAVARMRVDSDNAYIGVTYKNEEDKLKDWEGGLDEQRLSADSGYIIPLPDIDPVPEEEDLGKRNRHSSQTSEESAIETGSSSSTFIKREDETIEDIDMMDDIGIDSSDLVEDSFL
# In short: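 IC50 values came from duplicate serial dilutions, with product read by AlphaScreen. The reaction ran 30 min at 30 °C, then EDTA stop: 1.5 ng recombinant enzyme, biotin-poly(Glu4:Tyr1) substrate, 10 μM ATP, 10 mM MOPS pH 7.0, 10 mM MgCl2.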
# [3] = test system: THP-1 human acute monocytic leukemia cell with NRAS G12D mutation; assay: THP-1 cell proliferation assay (counter screen); assay type: cell-based; conditions: Homo sapiens, THP-1 cells, 72 hours treatment, CellTiter96, read-out: anti-proliferation activity THP-1 NRAS N12D, IC50 ranking
# In short: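 Viability measured as 490 nm absorbance after 2–4 h with CellTiter96 AQueous One reagent, following 72 h treatment with rising compound concentrations. THP-1 cells, 5000/well, grown in RPMI 1640 with 10% FBS and 0.05 mM 2-mercaptoethanol at 37° C, 5% CO2, plated overnight before dosing.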
# [4] = test system: HCC827 NSCLC cell with EGFR exon 19 deletion mutation; assay: HCC827 cell proliferation assay (counter screen); assay type: cell-based, human; conditions: Homo sapiens, HCC827 cells, 72 hours treatment, CellTiter96, read-out: anti-proliferation activity HCC827 EGFR Exon19 del, IC50 ranking
# In short: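 HCC827 cells (EGFR exon 19 deletion) were seeded at 8000 cells/well in RPMI1640 with 10% FBS, then exposed to increasing compound concentrations for 72 h at 37 °C. Viability was read by CellTiter96 AQueous One (MTS), absorbance 490 nm after 2–4 h.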
# MET kinase = biological target: T2, MET kinase (Homo sapiens, UniProt P08581); assay: MET kinase assay (AlphaScreen, counter screen); assay type: biochemical; conditions: read-out: Ranking of IC50 values, MET
# T2 construct: purchased SignalChem
# T2 sequence (P08581 25-1390): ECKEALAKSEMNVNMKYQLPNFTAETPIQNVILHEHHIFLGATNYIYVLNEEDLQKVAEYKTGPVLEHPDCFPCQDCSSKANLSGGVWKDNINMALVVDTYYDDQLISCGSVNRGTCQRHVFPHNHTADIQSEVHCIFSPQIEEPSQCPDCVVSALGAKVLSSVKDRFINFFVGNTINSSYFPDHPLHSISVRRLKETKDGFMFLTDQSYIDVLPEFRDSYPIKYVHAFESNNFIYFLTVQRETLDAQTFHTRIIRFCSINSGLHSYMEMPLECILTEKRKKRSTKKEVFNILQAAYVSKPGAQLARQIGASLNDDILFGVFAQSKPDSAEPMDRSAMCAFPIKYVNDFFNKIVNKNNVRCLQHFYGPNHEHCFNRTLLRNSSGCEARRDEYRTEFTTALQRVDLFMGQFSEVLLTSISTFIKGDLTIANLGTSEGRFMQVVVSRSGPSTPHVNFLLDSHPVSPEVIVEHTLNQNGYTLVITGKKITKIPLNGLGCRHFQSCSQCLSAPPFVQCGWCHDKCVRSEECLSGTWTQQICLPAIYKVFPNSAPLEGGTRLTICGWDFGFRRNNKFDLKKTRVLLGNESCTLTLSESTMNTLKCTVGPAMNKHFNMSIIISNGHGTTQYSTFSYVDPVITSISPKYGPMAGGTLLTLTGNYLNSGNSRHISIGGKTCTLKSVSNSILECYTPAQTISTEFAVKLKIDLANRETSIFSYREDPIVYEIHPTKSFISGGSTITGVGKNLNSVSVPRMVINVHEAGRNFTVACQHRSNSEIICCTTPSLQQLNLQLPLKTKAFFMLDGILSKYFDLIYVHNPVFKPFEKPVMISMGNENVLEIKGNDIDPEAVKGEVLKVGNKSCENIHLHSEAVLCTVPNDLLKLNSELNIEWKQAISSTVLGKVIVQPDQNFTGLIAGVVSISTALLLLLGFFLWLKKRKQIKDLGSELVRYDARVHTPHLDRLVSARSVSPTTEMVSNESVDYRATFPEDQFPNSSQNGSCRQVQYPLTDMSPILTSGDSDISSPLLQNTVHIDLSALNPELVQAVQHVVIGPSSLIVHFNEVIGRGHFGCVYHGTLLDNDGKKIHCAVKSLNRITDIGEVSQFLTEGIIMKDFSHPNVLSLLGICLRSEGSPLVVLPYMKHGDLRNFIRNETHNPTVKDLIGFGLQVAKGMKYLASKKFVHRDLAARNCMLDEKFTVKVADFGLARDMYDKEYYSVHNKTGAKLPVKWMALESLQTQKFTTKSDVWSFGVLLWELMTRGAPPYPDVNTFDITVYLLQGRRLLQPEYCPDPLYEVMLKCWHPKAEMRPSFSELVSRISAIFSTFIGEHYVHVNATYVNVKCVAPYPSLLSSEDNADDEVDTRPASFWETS
# In short: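 IC50 came from duplicate serial dilutions, with AlphaScreen detection of phosphorylated biotin-poly(Glu4:Tyr1). The reaction used 1 ng recombinant MET, 10 µM ATP […], and MOPS pH 7.0/MgCl2 buffer, ran 45 min at 30 °C, and was quenched with EDTA.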
Compound,IC50 [1] [µM],IC50 [2] [µM],IC50 (PDGFRα kinase) [µM],IC50 [3] [µM],IC50 [4] [µM],IC50 (MET kinase) [µM]
"Cc1cc(CN2CCOCC2)ccc1-c1cc2c(s1)Cc1c(-c3ccc4cnn(C)c4c3)n[nH]c1-2 [Compound 91, 4-(3-methyl-4-(3-(1-methyl-1H-indazol-6-yl)-1,4-dihydrothieno [2′,3′:4,5]cyclopenta [1,2-c]pyrazol-6-yl)benzyl)morpholine]",> 10,0.1 to 0.3,0.03 to 0.1,1 to 10,> 10,> 1
"Cn1ncc2ccc(-c3n[nH]c4c3Cc3sc(-c5ccc(N)nc5)cc3-4)cc21 [Compound 92, 5-(3-(1-methyl-1H-indazol-6-yl)-1,4-dihydro-thieno[2′,3′:4,5]cyclopenta [1,2-c]pyrazol-6-yl) pyridin-2-amine]",1 to 10,< 0.03,0.001 to 0.01,1 to 10,> 10,> 1
"CN(C)Cc1ccc(-c2cc3c(s2)Cc2c(-c4ccc5cnn(C)c5c4)n[nH]c2-3)cn1 [Compound 93, N,N-dimethyl-1-(5-(3-(1-methyl-1H-indazol-6-yl)-1,4-dihydrothieno [2′,3′:4,5]cyclopenta [1,2-c]pyrazol-6-yl)pyridin-2-yl)methanamine]",> 10,0.03 to 0.1,0.1 to 0.3,> 10,> 10,> 1
"CN(C)Cc1ccc(-c2cc3c(s2)Cc2c(-c4ccc5cnn(C)c5c4)n[nH]c2-3)cc1 [Compound 94, N,N-dimethyl-1-(4-(3-(1-methyl-1H-indazol-6-yl)-1,4-dihydrothieno [2′,3′:4,5]cyclopenta [1,2-c]pyrazol-6-yl)phenyl)methanamine]",1 to 10,< 0.03,0.001 to 0.01,1 to 10,1 to 10,0.3 to 1
"Cn1ncc2ccc(-c3n[nH]c4c3Cc3sc(-c5ccc(CN6CCNCC6=O)cc5)cc3-4)cc21 [Compound 101, 1-(4-(3-(1-methyl-1H-indazol-6-yl)-1,4-dihydro-thieno[2′,3′:4,5]cyclopenta [1,2-c]pyrazol-6-yl)benzyl)piperazin-2-one]",> 10,< 0.03,0.001 to 0.01,> 10,> 10,> 1

# — US12448394B2, “Heterocyclic pyrazole derivatives as type III receptor tyrosine kinase inhibitors” (DEVELOPMENT CENTER FOR BIOTECHNOLOGY, priority 2019, dated 2025)
